Measured values reported in PubChem BioAssay (NCI).
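1) Cells in 96-well plates. 2) Compound, 48 h, 5 concentrations. 3) Linear interpolation between surrounding doses. 4) Unreached endpoint = highest concentration. GI50 is the concentration that inhibits growth by half. Definition used: TGI = concentration required for complete inhibition of growth.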

Key:
Assay in all cases: NCI tumour cell line growth inhibition, 48 h
[1] = tested on: COLO 205 colon
[2] = tested on: KM12 colon
[3] = tested on: NCI-H226 lung
[4] = tested on: NCI-H23 lung
[5] = tested on: MCF7 breast
[6] = tested on: OVCAR-8 ovarian
[7] = tested on: HCC-2998 colon
[8] = tested on: MOLT-4 leukemia
[9] = tested on: SF-539 CNS
[10] = tested on: UACC-257 melanoma

| SMILES | GI50 [1] | TGI [1] | GI50 [2] | TGI [2] | GI50 [3] | TGI [3] | GI50 [4] | TGI [4] | GI50 [5] | TGI [5] | GI50 [6] | TGI [6] | GI50 [7] | TGI [7] | GI50 [8] | TGI [8] | GI50 [9] | TGI [9] | GI50 [10] | TGI [10] |
| --- | --- | --- | --- | --- | --- | --- | --- | --- | --- | --- | --- | --- | --- | --- | --- | --- | --- | --- | --- | --- |
| CN1CCN(CCCOc2cccc3nc(Nc4ccc(F)c(F)c4)ccc23)CC1 | 0.646 µM | 1.33 µM | 2.35 µM | 7.78 µM | 5.51 µM | 11.1 µM | 4.67 µM | 9.29 µM | 3.33 µM | 7.88 µM | 5.13 µM | 10.2 µM | 4.56 µM | 9.08 µM | 1.31 µM | 5.66 µM | 4.03 µM | 8.56 µM | 0.655 µM | 1.39 µM |
| COc1ccc2nc3cccc([N+](=O)[O-])c3c(NCCNCCN(C)C)c2c1 | 0.0277 µM | 0.0949 µM | 0.142 µM | 0.414 µM | 0.219 µM | 0.629 µM | 1.72 µM | 5.26 µM | 0.0192 µM | 0.221 µM | 0.044 µM | 0.277 µM | 0.0269 µM | 0.115 µM | 0.022 µM | 0.192 µM | 0.199 µM | 0.429 µM | 0.24 µM | 0.604 µM |
| NCCOc1ncccc1/C=C1\c2ccccc2-c2ccc([N+](=O)[O-])cc21 | 0.137 µM | 0.343 µM | 0.11 µM | 0.546 µM | 0.11 µM | 0.366 µM | 0.0479 µM | 0.413 µM | < 0.0109 µM | 0.409 µM | 0.0686 µM | 0.705 µM | 0.137 µM | 0.322 µM | < 0.01 µM | 0.0746 µM | 0.135 µM | 0.362 µM | 0.209 µM | 1.39 µM |
| OC(COc1ccccc1)CN1CCCCC1 (stereo not given) |  | > 100 µM |  | > 100 µM |  | > 100 µM |  | > 100 µM |  | > 100 µM |  | > 100 µM |  | > 100 µM |  | > 100 µM |  | > 100 µM |  | > 100 µM |
| Nc1ccc(-c2ccc3ncc4ccc(=O)n(-c5cccc(C(F)(F)F)c5)c4c3c2)cn1 | 0.0245 µM | 0.683 µM | < 0.0112 µM | 1.45 µM | < 0.01 µM | 4.7 µM | < 0.013 µM | 2.35 µM | < 0.01 µM | 12.8 µM | < 0.01 µM | > 33.7 µM | < 0.0118 µM | 1.6 µM | < 0.012 µM | 0.402 µM | < 0.01 µM | 0.039 µM | < 0.01 µM | 0.0708 µM |
| Nc1nc2c(ccc3ccccc32)s1 | > 100 µM | > 100 µM | > 100 µM | > 100 µM | > 100 µM | > 100 µM | > 100 µM | > 100 µM | 78.7 µM | > 100 µM | > 100 µM | > 100 µM | 50.6 µM | > 100 µM | 12.7 µM | > 100 µM | > 100 µM | > 100 µM | > 100 µM | > 100 µM |
| C[C@H](NC(=O)c1c(C(F)F)nn(C)c1Oc1cccc(C(F)(F)F)c1)c1ccc(C(=O)O)cc1 | > 100 µM | > 100 µM | > 100 µM | > 100 µM | > 100 µM | > 100 µM | > 100 µM | > 100 µM | > 100 µM | > 100 µM | > 100 µM | > 100 µM | > 100 µM | > 100 µM | > 100 µM | > 100 µM | > 100 µM | > 100 µM | > 100 µM | > 100 µM |
| COc1cc(NC(C)CCCNC(C)C)c2ncccc2c1OC (stereo not given) | 14 µM | 39.1 µM | > 100 µM | > 100 µM | > 100 µM | > 100 µM | > 100 µM | > 100 µM | 29.6 µM | > 100 µM | > 100 µM | > 100 µM | > 100 µM | > 100 µM | > 100 µM | > 100 µM | > 100 µM | > 100 µM | > 100 µM | > 100 µM |
| CCc1nc2cc(/C=C/C(=O)NO)ccc2c(=O)n1CCc1ccc(OC)cc1 | 1.94 µM | 5.13 µM | 3.42 µM | > 100 µM | 2.87 µM | 17.3 µM | 2.4 µM | 7.89 µM | 2.38 µM | 17.7 µM | 2.27 µM | 15.5 µM | 4.06 µM | 62.1 µM | 2.5 µM | > 100 µM | 1.91 µM | 6.29 µM | 2.93 µM | 9.33 µM |
| COc1ccc(-c2nn3ncccc3c2-c2ccnc(Nc3ccc4c(c3)OCCO4)n2)cc1 | 13.1 µM | > 25 µM | 5.99 µM | > 25 µM | 5.51 µM | > 25 µM | 9.22 µM | > 25 µM | 13.8 µM | > 25 µM | 7.3 µM | > 25 µM | 11 µM | > 25 µM | 14.2 µM | > 25 µM | 13 µM | > 25 µM | 9.07 µM | > 25 µM |
| Cn1cc(C2=C(c3ccccc3C(F)(F)F)C(=O)NC2=O)c2ccccc21 | 6.42 µM | > 25 µM | 6.97 µM | > 25 µM | 7.07 µM | > 24.2 µM | 11.9 µM | > 25 µM | 7.47 µM | > 25 µM | 10.4 µM | > 25 µM | > 19.6 µM | > 25 µM | 5.89 µM | > 22.6 µM | 11.1 µM | > 25 µM | 9.59 µM | > 22.5 µM |
| O=C(CN(/C=C/C(=O)C(F)(F)F)c1ccccc1)c1ccc(Cl)cc1 | 22.1 µM | 49.1 µM | 15.2 µM | 37.7 µM | 18.1 µM | 33.1 µM | 17.1 µM | 35.4 µM | 24.5 µM | 67.1 µM | 18.6 µM | 45.5 µM | 14.7 µM | 28.5 µM | 19.9 µM | 52.5 µM | 22.7 µM | 47 µM | 19.9 µM | 45.9 µM |
| COc1ccc(-c2nsc3c2NC(=O)CC3c2cccc(Cl)c2)cc1 (stereo not given) | 0.771 µM | > 42.4 µM | 0.743 µM | > 100 µM | 10.8 µM | > 100 µM | 4.62 µM | > 100 µM | 0.809 µM | > 100 µM | 4.35 µM | > 100 µM | 11.5 µM | > 100 µM | 4.11 µM | > 100 µM | 1.75 µM | 6.06 µM | 10.8 µM | > 100 µM |
| CCN(CC)c1ccc(/C=N/NC(=O)CSc2nc3ccccc3c(=O)n2Cc2ccc(S(N)(=O)=O)cc2)c(O)c1 | 1.51 µM | > 100 µM | 0.569 µM | > 100 µM | 0.895 µM | > 100 µM | 1.96 µM | > 100 µM | 0.457 µM | > 100 µM | 0.932 µM | > 100 µM | 0.882 µM | > 100 µM | 0.372 µM | > 100 µM | 1.26 µM | > 100 µM | 3.03 µM | > 100 µM |
| CCOc1ccc(N=Cc2ccnc3ccccc23)cc1 |  | > 100 µM |  | > 89.9 µM |  | > 100 µM |  | > 98 µM |  | > 100 µM |  | > 83.7 µM |  | 81.4 µM |  | > 100 µM |  | 85.9 µM |  | > 100 µM |
| COc1ccc2c(c1)CCc1c(CO)c(COC(=O)NC(C)C)n(C)c1-2 |  | 4.68 µM |  | 28.2 µM |  | 14.6 µM |  | 22.1 µM |  | > 100 µM |  | 21.2 µM |  | 51.5 µM |  | 8.57 µM |  | > 87 µM |  | 27.1 µM |
| COc1ccc(-c2nc(N)c(C#N)c3c2CCOc2c-3ccc3ccccc23)cc1 | 7.61 µM | > 100 µM | 42.7 µM | > 100 µM | 18 µM | 58.2 µM | 19.4 µM | 61.9 µM | 20.2 µM | > 100 µM | 23.3 µM | 58 µM | 56.1 µM | > 100 µM | > 100 µM | > 100 µM | 21.2 µM | 52.6 µM | 13.7 µM | 37.8 µM |
| CC[C@@H](O)C[C@H]1CCC[C@@]2(C[C@@H]3OC(=O)/C=C/[C@@](C)(O)[C@@H](O)[C@H](C)[C@@H](O)[C@H](OC4CCC(N(C)C)C(C)O4)[C@@H](O)[C@](C)(O)CCCCC/C=C/[C@@H]4CC(C)(C)O[C@@]4(O)C[C@H](O2)[C@H]3C)O1 (stereo not given in full) |  | 14.5 µM |  | 24.4 µM |  | 29.6 µM |  | 18.2 µM |  | 15.6 µM |  | 20.3 µM |  | 17.5 µM |  | 23.3 µM |  | 23.3 µM |  | 4.82 µM |
| COc1cccc(NC(=O)c2sc3nc4c(cc3c2N)C(O)CCC4)c1 (stereo not given) | 0.226 µM | 0.87 µM | 0.111 µM | > 100 µM | 0.669 µM | > 100 µM | 0.442 µM | > 100 µM | 0.0523 µM | > 100 µM | 0.377 µM | > 100 µM | 0.347 µM | > 100 µM | 0.294 µM | > 100 µM | 0.14 µM | 0.606 µM | 28.2 µM | > 100 µM |
